Test results published in ChEMBL document CHEMBL1201862, “PubChem BioAssay data set” (2004).
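Cells were grown in 96-well plates and exposed to each compound for 48 hours at five concentrations; endpoints were interpolated linearly between bracketing concentrations, or set to the highest concentration if not reached. GI50: concentration for 50% inhibition of growth.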 Activity calls are given as the source filed them. Cut-off read from the data, not from the text of the source: active = GI50 up to about 1.1 µM and inactive = higher.

Columns and labels:
Assay in all cases: NCI-60 cell line screen, 48 h
786-0 = test system: 786-0
A498 = test system: A498
A549 = test system: A549
ACHN = test system: ACHN
BT-549 = test system: BT-549
COLO 205 = test system: COLO 205
DU-145 = test system: DU-145
HCC 2998 = test system: HCC 2998
HCT-116 = test system: HCT-116
HCT-15 = test system: HCT-15
HL-60 = test system: HL-60
HOP-62 = test system: HOP-62
HOP-92 = test system: HOP-92
HT-29 = test system: HT-29
Hs-578T = test system: Hs-578T
K562 = test system: K562
KM12 = test system: KM12
LOX IMVI = test system: LOX IMVI
M14 = test system: M14
MCF7 = test system: MCF7
MDA-MB-231 = test system: MDA-MB-231
MDA-MB-435 = test system: MDA-MB-435
MDA-N = test system: MDA-N
Malme-3M = test system: Malme-3M
NCI-H226 = test system: NCI-H226
NCI-H23 = test system: NCI-H23
NCI-H460 = test system: NCI-H460
NCI/ADR-RES = test system: NCI/ADR-RES
OVCAR-3 = test system: OVCAR-3
OVCAR-4 = test system: OVCAR-4
OVCAR-5 = test system: OVCAR-5
RPMI-8226 = test system: RPMI-8226
RXF 393 = test system: RXF 393
SF-268 = test system: SF-268
SF-539 = test system: SF-539
SK-MEL-28 = test system: SK-MEL-28
SK-MEL-2 = test system: SK-MEL-2
SK-MEL-5 = test system: SK-MEL-5
SK-OV-3 = test system: SK-OV-3
SN12C = test system: SN12C
SNB-19 = test system: SNB-19
SNB-75 = test system: SNB-75
SR = test system: SR
SW-620 = test system: SW-620
T47D = test system: T47D
TK-10 = test system: TK-10
U-251 = test system: U-251
UACC-257 = test system: UACC-257
UACC-62 = test system: UACC-62
UO-31 = test system: UO-31
CAKI-1 = test system: CAKI-1
CCRF-CEM = test system: CCRF-CEM
EKVX = test system: EKVX
IGROV-1 = test system: IGROV-1
MOLT-4 = test system: MOLT-4
NCI-H522 = test system: NCI-H522
OVCAR-8 = test system: OVCAR-8
PC-3 = test system: PC-3
SF-295 = test system: SF-295

COc1ccc(-c2cn3c(nc4ccccc43)c(/C=C/c3cccs3)n2)cc1
GI50 (786-0): 71.3 µM (inactive) | GI50 (A498): > 100 µM (inactive) | GI50 (A549): 55.6 µM (inactive) | GI50 (ACHN): > 100 µM (inactive) | GI50 (BT-549): 63 µM (inactive) | GI50 (COLO 205): 29.8 µM (inactive) | GI50 (DU-145): > 100 µM (inactive) | GI50 (HCC 2998): 49.5 µM (inactive) | GI50 (HCT-116): 51.2 µM (inactive) | GI50 (HCT-15): 26.7 µM | GI50 (HL-60): 20.4 µM (inactive) | GI50 (HOP-62): 83 µM (inactive) | GI50 (HOP-92): 16.9 µM (inactive) | GI50 (HT-29): 29.8 µM (inactive) | GI50 (Hs-578T): 28.4 µM (inactive) | GI50 (K562): 9.48 µM (inactive) | GI50 (KM12): 11.9 µM (inactive) | GI50 (LOX IMVI): 35.3 µM (inactive) | GI50 (M14): 37.8 µM (inactive) | GI50 (MCF7): 15 µM (inactive) | GI50 (MDA-MB-231): > 100 µM (inactive) | GI50 (MDA-MB-435): 4.28 µM (inactive) | GI50 (MDA-N): 7.53 µM (inactive) | GI50 (Malme-3M): 23.4 µM (inactive) | GI50 (NCI-H226): > 100 µM (inactive) | GI50 (NCI-H23): 33.8 µM (inactive) | GI50 (NCI-H460): 32.4 µM (inactive) | GI50 (NCI/ADR-RES): 13 µM (inactive) | GI50 (OVCAR-3): 21.6 µM (inactive) | GI50 (OVCAR-4): 49.7 µM (inactive) | GI50 (OVCAR-5): > 100 µM (inactive) | GI50 (RPMI-8226): 15.4 µM (inactive) | GI50 (RXF 393): > 100 µM (inactive) | GI50 (SF-268): 59.2 µM (inactive) | GI50 (SF-539): 89.7 µM (inactive) | GI50 (SK-MEL-28): 80 µM (inactive) | GI50 (SK-MEL-2): 10.6 µM (inactive) | GI50 (SK-MEL-5): 15.8 µM (inactive) | GI50 (SK-OV-3): 75.2 µM (inactive) | GI50 (SN12C): > 100 µM (inactive) | GI50 (SNB-19): 92.3 µM (inactive) | GI50 (SNB-75): 52.6 µM (inactive) | GI50 (SR): 2.65 µM (inactive) | GI50 (SW-620): 41.1 µM (inactive) | GI50 (T47D): 43.2 µM (inactive) | GI50 (TK-10): > 100 µM (inactive) | GI50 (U-251): 53.1 µM (inactive) | GI50 (UACC-257): 62.7 µM (inactive) | GI50 (UACC-62): 68.2 µM (inactive) | GI50 (UO-31): > 100 µM (inactive)

Clc1cccc(N/N=N/c2ccc(-c3nc4ccccc4s3)cc2)c1
GI50 (786-0): 22.2 µM (inactive) | GI50 (A498): > 100 µM (inactive) | GI50 (A549): 82.4 µM (inactive) | GI50 (ACHN): > 100 µM (inactive) | GI50 (BT-549): 51.2 µM (inactive) | GI50 (CAKI-1): 53.8 µM (inactive) | GI50 (CCRF-CEM): 21 µM (inactive) | GI50 (COLO 205): > 100 µM (inactive) | GI50 (DU-145): > 100 µM (inactive) | GI50 (EKVX): > 100 µM (inactive) | GI50 (HCC 2998): 64.4 µM (inactive) | GI50 (HCT-116): 32.7 µM (inactive) | GI50 (HCT-15): 32.4 µM | GI50 (HL-60): 6.34 µM (inactive) | GI50 (HOP-62): > 100 µM (inactive) | GI50 (HOP-92): 20.4 µM (inactive) | GI50 (HT-29): > 100 µM (inactive) | GI50 (Hs-578T): > 100 µM (inactive) | GI50 (IGROV-1): 21.4 µM (inactive) | GI50 (K562): 28.6 µM (inactive) | GI50 (KM12): > 100 µM (inactive) | GI50 (LOX IMVI): 53 µM (inactive) | GI50 (M14): 34.8 µM (inactive) | GI50 (MCF7): 47.5 µM (inactive) | GI50 (MDA-MB-435): 30.6 µM (inactive) | GI50 (MDA-N): 26.4 µM (inactive) | GI50 (MOLT-4): 18.4 µM (inactive) | GI50 (Malme-3M): 26.6 µM (inactive) | GI50 (NCI-H226): 94.8 µM (inactive) | GI50 (NCI-H23): 24.5 µM (inactive) | GI50 (NCI-H460): 50.9 µM (inactive) | GI50 (NCI-H522): 24.2 µM (inactive) | GI50 (NCI/ADR-RES): 27.9 µM (inactive) | GI50 (OVCAR-3): 51.5 µM (inactive) | GI50 (OVCAR-4): 46.9 µM (inactive) | GI50 (OVCAR-5): > 100 µM (inactive) | GI50 (OVCAR-8): 22.4 µM (inactive) | GI50 (PC-3): 41.6 µM (inactive) | GI50 (RPMI-8226): 58.7 µM (inactive) | GI50 (RXF 393): 27.2 µM (inactive) | GI50 (SF-295): > 100 µM (inactive) | GI50 (SF-539): 82.8 µM (inactive) | GI50 (SK-MEL-28): 42.8 µM (inactive) | GI50 (SK-MEL-2): 21.2 µM (inactive) | GI50 (SK-MEL-5): 25.4 µM (inactive) | GI50 (SK-OV-3): 42.3 µM (inactive) | GI50 (SN12C): 21.9 µM (inactive) | GI50 (SNB-19): 86.1 µM (inactive) | GI50 (SNB-75): 30.3 µM (inactive) | GI50 (SR): 20.9 µM (inactive) | GI50 (SW-620): 33.7 µM (inactive) | GI50 (T47D): 47.9 µM (inactive) | GI50 (TK-10): 94.6 µM (inactive) | GI50 (U-251): 36.9 µM (inactive) | GI50 (UACC-257): > 100 µM (inactive) | GI50 (UACC-62): 25.2 µM (inactive) | GI50 (UO-31): > 100 µM (inactive)
